Here are results for 14 compounds from US20020019527A1 (priority 2000, published 2002).

Counter-ions that a name gives are not always drawn.

The target in the first test is T1, Farnesyltransferase (FTase) (Bos taurus, UniProt P29702+P49355).
T1 construct: precipitation from a beef brain homogenate; from tissue; host or cells: bovine brain
T1 sequence (P49355 whole entry, one chain of several): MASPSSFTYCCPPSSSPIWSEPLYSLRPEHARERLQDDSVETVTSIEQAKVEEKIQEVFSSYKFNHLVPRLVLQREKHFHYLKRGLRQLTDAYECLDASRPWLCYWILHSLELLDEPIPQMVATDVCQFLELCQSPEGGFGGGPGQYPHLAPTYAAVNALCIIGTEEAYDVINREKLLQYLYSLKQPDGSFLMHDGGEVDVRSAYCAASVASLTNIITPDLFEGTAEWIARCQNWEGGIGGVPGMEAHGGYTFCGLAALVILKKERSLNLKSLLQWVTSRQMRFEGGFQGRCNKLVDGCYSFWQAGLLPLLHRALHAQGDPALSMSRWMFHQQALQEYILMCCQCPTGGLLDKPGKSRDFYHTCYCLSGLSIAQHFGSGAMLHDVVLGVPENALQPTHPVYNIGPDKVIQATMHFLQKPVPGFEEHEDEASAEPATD
As to the kind of experiment: Farnesyltransferase inhibition (scintillation proximity assay, [3H]-FPP / biotin-K-ras peptide).
Details: not given
The class given is biochemical, bovine. Summed up: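 Bovine brain FTase, partially purified by 30–50% saturated ammonium sulfate precipitation and DEAE Sepharose chromatography, separated from GGTase I/II. Scintillation proximity read-out of [3H]-FPP transfer to biotin-K-ras peptide, counted 1 h after quench. Compounds added from ethanol with 10-fold dilution into assay.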
Usually % Inhibition stands for how much of the control response was suppressed. Regarding `Cc1ccccc1-c1cc(C(OCc2ccc([N+](=O)[O-])cc2)c2cncn2C)ccc1C#N.Cl` (centres unmarked) [Example 121], the “% Inhibition at 10^−6M” value came out at 96%.

Consider `Cc1ccccc1-c1cc(C(OCc2cccc(C(F)(F)F)c2)c2cncn2C)ccc1C#N.Cl` (centres unmarked) [Example 123], for which the “% Inhibition at 10^−6M” value was determined as 97%.

Staying with this test, now noted: compound at 10^−6 M; bovine FTase, 37° C., 30 minutes.
In general, inhibition refers to the percentage by which the read-out fell short of the control. `Cn1cncc1C(OCc1ccc(C#N)cc1)c1ccc(F)c(-c2cccc3ccccc23)c1` (centres unmarked) [Example 112, 4-(((4-fluoro-3-(1-naphthyl)phenyl)(1-methyl-1H-imidazol-5-yl)methoxy)methyl)benzonitrile para-toluenesulfonic acid salt] returned an inhibition at 1 µM of 100%.

Take `Cc1ccccc1-c1cc(C(OCc2cccc(C#N)c2)c2cncn2C)ccc1C#N` (centres unmarked) [Example 113, 5-(((3-cyanobenzyl)oxy)(1-methyl-1H-imidazol-5-yl)methyl)-2′-methyl(1,1′-biphenyl)-2-carbonitrile hydrochloride]: the inhibition at 1 µM worked out at 90%.

Compound `Cn1cncc1CN(Cc1ccc(C#N)cc1)Cc1ccc(C#N)c(-c2cccc3cccnc23)c1` [Example 114, 4-(((4-cyanobenzyl)((1-methyl-1H-imidazol-5-yl)methyl)amino)methyl)-2-(8-quinolinyl)benzonitrile] registered an inhibition at 1 µM of 99%.

`Cc1ccccc1-c1cc(C(OCc2ccc(C(C)(C)C)cc2)c2cncn2C)ccc1C#N` (centres unmarked) [Example 115, 5-(((4-(tert-butyl)benzyl)oxy)(1-methyl-1H-imidazol-5-yl)methyl)-2′-methyl(1,1′-biphenyl)-2-carbonitrile hydrochloride]: the inhibition at 1 µM was found to be 89%.

With `Cc1ccccc1-c1cc(C(OCc2ccc(C#N)cc2)c2cncn2C)ccc1C#N` (centres unmarked) [Example 116, 5-(((4-cyanobenzyl)oxy)(1-methyl-1H-imidazol-5-yl)methyl)-2′-methyl(1,1′-biphenyl)-2-carbonitrile hydrochloride], the inhibition at 1 µM was 99%.

Consider `Cc1ccccc1-c1cc(C(OCc2cccc(I)c2)c2cncn2C)ccc1C#N` (centres unmarked) [Example 117, 5-(((3-iodobenzyl)oxy)(1-methyl-1H-imidazol-5-yl)methyl)-2′-methyl(1,1′-biphenyl)-2-carbonitrile hydrochloride], for which the inhibition at 1 µM came to 90%.

The compound `Cc1ccccc1-c1cc(C(OCc2ccc(F)cc2)c2cncn2C)ccc1C#N` (centres unmarked) [Example 118, 5-(((4-fluorobenzyl)oxy)(1-methyl-1H-imidazol-5-yl)methyl)-2′-methyl(1,1′-biphenyl)-2-carbonitrile hydrochloride] returned an inhibition at 1 µM of 90%.

In turn, `Cc1ccccc1-c1cc(C(OCc2ccc(Br)cc2)c2cncn2C)ccc1C#N` (centres unmarked) [Example 119, 5-(((4-bromobenzyl)oxy)(1-methyl-1H-imidazol-5-yl)methyl)-2′-methyl(1,1′-biphenyl)-2-carbonitrile hydrochloride] had an inhibition at 1 µM of 93%.

Take `Cc1ccccc1-c1cc(C(OCc2cccc(Cl)c2)c2cncn2C)ccc1C#N` (centres unmarked) [Example 120, 5-(((3-chlorobenzyl)oxy)(1-methyl-1H-imidazol-5-yl)methyl)-2′-methyl(1,1′-biphenyl)-2-carbonitrile hydrochloride]: the inhibition at 1 µM was 90%.

Compound `COc1ccc([N+](=O)[O-])cc1COC(c1ccc(C#N)c(-c2ccccc2C)c1)c1cncn1C` (centres unmarked) [Example 122, 5-(((2-methoxy-5-nitrobenzyl)oxy)(1-methyl-1H-imidazol-5-yl)methyl)-2′-methyl(1,1′-biphenyl)-2-carbonitrile hydrochloride] returned an inhibition at 1 µM of 94%.

Take `Cc1ccccc1-c1cc(C(OCc2c(Cl)cccc2Cl)c2cncn2C)ccc1C#N` (centres unmarked) [Example 124, 5-(((2,6-dichlorobenzyl)oxy)(1-methyl-1H-imidazol-5-yl)methyl)-2′-methyl(1,1′-biphenyl)-2-carbonitrile hydrochloride]: 1 µM produced 90% inhibition.

With `Cc1ccccc1-c1cc(C(OCc2ccc(Cl)c(Cl)c2)c2cncn2C)ccc1C#N` (centres unmarked) [Example 125, 5-(((3,4-dichlorobenzyl)oxy)(1-methyl-1H-imidazol-5-yl)methyl)-2′-methyl(1,1′-biphenyl)-2-carbonitrile hydrochloride], 1 µM produced 97% inhibition.
